{
  "source": "patent EP2604265A1",
  "about": "“P2x7 antagonists as frontline or adjunctive treatment against status epilepticus” (Royal College of Surgeons in Ireland (RCSI), priority 2011, dated 2013)",
  "tested_on": "Adult male C57BL/6 mice",
  "experiment": "Intra-amygdala KA-induced SE in mice, EEG, early post-treatment after seizure onset",
  "type": "in vivo",
  "settings": "i.c.v. 15 min after KA",
  "method": "Adult male C57BL/6 mice (20-25 g) were obtained from Harlan UK (Blackthorn, UK). Mice were first anesthetized using isoflurane (3-5%) and maintained normothermic by means of a feedback-controlled heat blanket (Harvard Apparatus Ltd, Kent, UK). Mice were next placed in a stereotaxic frame and three partial craniectomies performed to affix cortical skull-mounted EEG electrodes (Bilaney Consultants Ltd, Sevenoaks, UK). EEG was recorded using a Grass Comet XL digital EEG (Medivent Ltd, Lucan, Ireland). A guide cannula was affixed (coordinates from Bregma: AP = 0.94; L = 2.85 mm) and the assembly fixed in place with dental cement. Anesthesia was then discontinued and freely moving mice were placed inside a clear perspex recording chamber. EEG recordings were commenced and after establishing baseline EEG for a few minutes, an injection cannula was lowered through the guide cannula for injection of kainic acid (KA) (Ocean Produce International, Nova Scotia, Canada) into the basolateral amygdala nucleus (0.3 µg in 0.2 µl phosphate-buffered saline). Non-seizure control mice underwent the same surgical procedure but received 0.2 µl intra-amygdala vehicle. Mice were killed at different time-points (1, 4, 8 or 24 h) later and perfused with saline to remove intravascular blood components. Brains were either flash-frozen whole in 2-methylbutane at […] or perfused with 4% PFA for histopathology, or dissected on ice to obtain whole hippocampus or microdissected to obtain the different hippocampal subfields (CA1, DG and CA3).\nDigitized EEG recordings were analyzed off-line using manual assessment and automated software. The occurrence of high amplitude high frequency spiking during seizures is synonymous with injury-causing electrographic seizures during SE (also termed type IV electrographic seizures) (Lowenstein et al., 1991; Henshall et al., 2000). The duration of high-frequency (>5 Hz) high-amplitude (>2× baseline) polyspike discharges of ≥5 s duration (HAHFDs) was counted by a reviewer blind to treatment. Further EEG analysis was performed by uploading EEG into Labchart7 software (ADInstruments) to calculate the power spectral density (total power, a measure of the input signal's power (amplitude) over frequency) EEG spectrogram (spectral power against frequency and time).\nA-438079 (3-[[5-(2,3-Dichlorophenyl)-1H-tetrazol-1-yl]methyl]pyridine hydrochloride) (50 µM) was from Tocris Biosciences (Bristol, U.K.) and the P2X7R specific antibody was from Alomone Labs (APR-008, Alomone Labs, Ltd, Jerusalem, Israel) and injected at 0.7 mg/ml. Lorazepam (Ativan®, Wyeth, Taplow, U.K.) (6 mg/kg) was administered intraperitoneally (i.p.) at 40 or 60 min after KA.\n15 min after the injection of KA. […]",
  "data": [
    {"smiles": "Cl.Clc1cccc(-c2nnnn2Cc2cccnc2)c1Cl", "note": "[A-438079, 3-[[5-(2,3-Dichlorophenyl)-1H-tetrazol-1-yl]methyl]pyridine hydrochloride]", "values": [
      {"measurement": "duration of HAHFDs", "setting": "recorded until lorazepam at 40 min post-KA, vs vehicle", "result": "significantly reduced"},
      {"measurement": "Total seizure power", "setting": "until 40 min post-KA, vs vehicle", "result": "significantly reduced"},
      {"measurement": "frequency of the EEG", "setting": "vs vehicle", "result": "No changes"},
      {"measurement": "seizure amplitude", "setting": "spectral heat map during SE", "result": "decreased"}
    ]}
  ]
}
